From US8728516B2, “Stabilized lipid formulation of apoptosis promoter” (AbbVie Inc., priority 2009, dated 2014)

What was measured:
[1] = Drug solubility in ternary excipient systems (Example 2); type: physicochemical; conditions: 10% salt, 20% free base by weight
Description: Solvents evaluated included Labrafil M 1944 CS™, Imwitor 742™ oleic acid, Capmul PG-8™, Capmul PG-12™, Lauroglycol 90™ (propylene glycol monolaurate, available from Gattefosse) and Phosal 53 MCT™. Surfactants evaluated included Tween 80™, Cremophor RH40™, Gelucire 44/14™ (polyoxyethylene glyceryl laurate, available from Gattefosse) and Labrasol™.

[2] = Sulfoxide formation, free base vs bis-HCl salt in lipid solution (Example 3); type: physicochemical; conditions: lipid solutions (PE-91, LOT-343) aged at 40°C for up to 3 weeks
Description: The solvent system in solution A is Phosal 53 MCT™/ethanol, 9:1 v/v; and in solution B is Labrafil M 1944 CS™/oleic acid/polysorbate 80, 30%/40%/30% by weight. (Labrafil M 1944 CS™ of Gattefossé contains polyoxyethylene glyceryl monooleate.) The three-week study was conducted at 40° C. without nitrogen purging of headspace. […] No antioxidant was included, nor was headspace nitrogen purging performed.

[3] = Sulfoxide formation in various lipid solutions, two-week stress test (Example 4); type: physicochemical; conditions: in Labrafil M 1944 CS and Plurol Oleique CC497; two-week stress test 40°C
[4] = Antioxidant testing, two-week stress test (Example 6); type: physicochemical; conditions: for inhibition of oxidative degradation: ABT-263 free base 100 mg/g in LIT-433 vehicle system, at the concentrations tested
[5] = BHA as antioxidant in ternary lipid systems (Example 7); type: physicochemical
Description: A full report of this study is found in Example 7 herein.
Testing was done in stress conditions at 40° C. without nitrogen purging.

[6] = type: physicochemical
Description: Due to poor lipid solubility of NaMTBS, an alternative way of introducing it to the lipid solution is by adding a concentrated aqueous stock solution of NaMTBS to the lipid solution.

[7] = Storage stability of prototype capsules with and without NaMTBS (Example 12); type: physicochemical; conditions: prototype ABT-263 capsules, especially at 40° C. and 75% RH
Description: The only difference between the two batches is presence or absence of antioxidant (sodium metabisulfite). The liquids having the composition shown in Table 16 were encapsulated in size 0 hard gelatin capsules and the capsules placed in blister packaging for a chemical stability study. Water content shown in Table 17 is as determined by analysis, and is not directly related to amount of water added with NaMTBS and edetate calcium disodium as in Table 16.

[8] = C8LL (Capmul PG-8/Labrafil M 1944 CS/Labrasol) 40:40:20
[9] = C12LT (Capmul PG-12/Labrafil M 1944 CS/Tween 80) 30:40:30
[10] = C12LT (Capmul PG-12/Labrafil M 1944 CS/Tween 80) 35:40:25
[11] = C12LT (Capmul PG-12/Labrafil M 1944 CS/Tween 80) 40:30:30
[12] = C12LT (Capmul PG-12/Labrafil M 1944 CS/Tween 80) 45:30:25
[13] = LLC (Lauroglycol 90/Labrafil M 1944 CS/Cremophor RH40) 45:30:25
[14] = LLL (Lauroglycol 90/Labrafil M 1944 CS/Labrasol) 40:40:20
[15] = LLL (Lauroglycol 90/Labrafil M 1944 CS/Labrasol) 50:30:20
[16] = LOC (Labrafil M 1944 CS/oleic acid/Cremophor RH40) 30:60:10
[17] = LOC (Labrafil M 1944 CS/oleic acid/Cremophor RH40) 40:50:10
[18] = LOT (Labrafil M 1944 CS/oleic acid/Tween 80) 30:40:30
[19] = LOT (Labrafil M 1944 CS/oleic acid/Tween 80) 30:45:25
[20] = LOT (Labrafil M 1944 CS/oleic acid/Tween 80) 40:30:30
[21] = LOT (Labrafil M 1944 CS/oleic acid/Tween 80) 40:35:25
[22] = OLL (oleic acid/Labrafil M 1944 CS/Labrasol) 40:40:20
[23] = OLL (oleic acid/Labrafil M 1944 CS/Labrasol) 50:30:20
[24] = OLL (oleic acid/Labrafil M 1944 CS/Labrasol) 50:40:10
[25] = OLL (oleic acid/Labrafil M 1944 CS/Labrasol) 60:30:10

CC1(C)CCC(c2ccc(Cl)cc2)=C(CN2CCN(c3ccc(C(=O)NS(=O)(=O)c4ccc(N[C@H](CCN5CCOCC5)CSc5ccccc5)c(S(=O)(=O)C(F)(F)F)c4)cc3)CC2)C1.Cl.Cl [ABT-263 bis-HCl salt]
ABT-263 solubility [1, 8]: ✓ | ABT-263 solubility [1, 9]: ✓ | ABT-263 solubility [1, 10]: ✓ | ABT-263 solubility [1, 11]: ✓ | ABT-263 solubility [1, 12]: ✓ | ABT-263 solubility ([1]; ILC (Imwitor 742/Labrafil M 1944 CS/Cremophor RH40) 40:40:20): ✓ | ABT-263 solubility ([1]; ILC (Imwitor 742/Labrafil M 1944 CS/Cremophor RH40) 50:30:20): ✓ | ABT-263 solubility ([1]; ILC (Imwitor 742/Labrafil M 1944 CS/Cremophor RH40) 50:40:10): ✓ | ABT-263 solubility ([1]; ILC (Imwitor 742/Labrafil M 1944 CS/Cremophor RH40) 60:30:10): ✓ | ABT-263 solubility ([1]; ILL (Imwitor 742/Labrafil M 1944 CS/Labrasol) 40:40:20): ✓ | ABT-263 solubility ([1]; ILL (Imwitor 742/Labrafil M 1944 CS/Labrasol) 50:30:20): ✓ | ABT-263 solubility ([1]; ILL (Imwitor 742/Labrafil M 1944 CS/Labrasol) 50:40:10): ✓ | ABT-263 solubility ([1]; ILL (Imwitor 742/Labrafil M 1944 CS/Labrasol) 60:30:10): ✓ | ABT-263 solubility ([1]; LIT (Labrafil M 1944 CS/Imwitor 742/Tween 80) 30:40:30): ✓ | ABT-263 solubility ([1]; LIT (Labrafil M 1944 CS/Imwitor 742/Tween 80) 30:45:25): ✓ | ABT-263 solubility ([1]; LIT (Labrafil M 1944 CS/Imwitor 742/Tween 80) 40:30:30): ✓ | ABT-263 solubility ([1]; LIT (Labrafil M 1944 CS/Imwitor 742/Tween 80) 40:35:25): ✓ | ABT-263 solubility [1, 13]: ✓ | ABT-263 solubility [1, 14]: ✓ | ABT-263 solubility [1, 15]: ✓ | ABT-263 solubility ([1]; LLL (Lauroglycol 90/Labrafil M 1944 CS/Labrasol) 50:40:10): ✓ | ABT-263 solubility ([1]; LLL (Lauroglycol 90/Labrafil M 1944 CS/Labrasol) 60:30:10): ✓ | ABT-263 solubility [1, 16]: ✓ | ABT-263 solubility [1, 17]: ✓ | ABT-263 solubility [1, 18]: ✓ | ABT-263 solubility [1, 19]: ✓ | ABT-263 solubility [1, 20]: ✓ | ABT-263 solubility [1, 21]: ✓ | ABT-263 solubility [1, 22]: ✓ | ABT-263 solubility [1, 23]: ✓ | ABT-263 solubility [1, 24]: ✓ | ABT-263 solubility [1, 25]: ✓ | color change upon aging [2]: pronounced color darkening

CC1(C)CCC(c2ccc(Cl)cc2)=C(CN2CCN(c3ccc(C(=O)NS(=O)(=O)c4ccc(N[C@H](CCN5CCOCC5)CSc5ccccc5)c(S(=O)(=O)C(F)(F)F)c4)cc3)CC2)C1 [ABT-263]
ABT-263 solubility [1, 8]: ✓ | ABT-263 solubility [1, 9]: ✓ | ABT-263 solubility [1, 10]: ✓ | ABT-263 solubility [1, 11]: ✓ | ABT-263 solubility [1, 12]: ✓ | ABT-263 solubility [1, 13]: ✓ | ABT-263 solubility [1, 14]: ✓ | ABT-263 solubility [1, 15]: ✓ | ABT-263 solubility [1, 16]: ✓ | ABT-263 solubility [1, 17]: ✓ | ABT-263 solubility [1, 18]: ✓ | ABT-263 solubility [1, 19]: ✓ | ABT-263 solubility [1, 20]: ✓ | ABT-263 solubility [1, 21]: ✓ | ABT-263 solubility [1, 22]: ✓ | ABT-263 solubility [1, 23]: ✓ | ABT-263 solubility [1, 24]: ✓ | ABT-263 solubility [1, 25]: ✓ | degradation [3]: significant degradation

COc1ccc(O)c(C(C)(C)C)c1 [BHA, butylated hydroxyanisole]
inhibition of oxidative degradation [4]: inhibited oxidative degradation to some extent | effect on sulfoxide formation ([5]; 0.2% by weight BHA in 15% by weight ABT-263 free base in IPT-253, 4-week study at 40°C without nitrogen purging): no effect | inhibition of sulfoxide formation ([5]; 0.2% w/w BHA, ABT-263 150 mg/g in IPT-253 and LIT-433, 40°C without nitrogen purging): did not provide any inhibition

Cc1cc(C(C)(C)C)c(O)c(C(C)(C)C)c1 [BHT, butylated hydroxytoluene]
inhibition of oxidative degradation [4]: inhibited oxidative degradation to some extent

OCC(O)CS (centres unmarked) [Thioglycerol, thioglycerol]
inhibition of drug oxidation ([4]; ABT-263 free base 100 mg/g, both vehicle systems (Lipoid S75 MCT, LIT-433)): effective inhibition

CCCCCCCCCCCCCCCC(=O)OC[C@H](O)[C@H]1OC(=O)C(O)=C1O [ascorbyl palmitate]
inhibition of oxidative degradation [4]: inhibited oxidative degradation to some extent

O=S([O-])S(=O)(=O)[O-].[Na+].[Na+] [sodium metabisulfite]
inhibition of oxidative degradation [4]: inhibited oxidative degradation to some extent | final NaMTBS concentration giving a clear solution [6]: ≤ 9.67 mg/mL | final NaMTBS concentration at which the lipid solution turned turbid ([6]; 50 mg/ml free base solution in Phosal 53 MCT/ethanol 9:1 v/v, 15% w/v stock solution): ≥ 150 % relative molar concentration | solubility of neat NaMTBS (solids remained) ([6]; 5 days): < 0.05 % w/w | inhibition of formation of total sulfoxides [7]: significantly inhibited

O=S([O-])([O-])=S.[Na+].[Na+] [sodium thiosulfate]
inhibition of oxidative degradation [4]: inhibited oxidative degradation to some extent

α-tocopherols
inhibition of oxidative degradation [4]: ineffective
